Measurements reported in the kinase profiling compilation of Christmann-Franck et al. (2016).

Columns and labels:
Test in all cases: TR FRET
Settings in all cases: compound 0.01 µM
ANKK1 (human) = ANKK1 (human) (UniProt Q8NFD2)
BLK (human) = BLK (human) (UniProt P51451)
BMX (human) = BMX (human) (UniProt P51813)
BRAF (human) = BRAF (human) (UniProt P15056)
[1] = test system: BRAF (human), P15056 [V600E]
CHUK (human) = CHUK (human) (UniProt O15111)
CPK1 (P.falciparum) = test system: CPK1 (P.falciparum)
CSF1R (human) = CSF1R (human) (UniProt P07333)
CSK (human) = CSK (human) (UniProt P41240)
DDR1 (human) = DDR1 (human) (UniProt Q08345)
DDR2 (human) = DDR2 (human) (UniProt Q16832)
[2] = test system: EIF2AK4 KD2 (human), Q9P2K8 [S808G]
EPHA3 (human) = EPHA3 (human) (UniProt P29320)
EPHA4 (human) = EPHA4 (human) (UniProt P54764)
EPHA8 (human) = EPHA8 (human) (UniProt P29322)
FGFR1 (human) = FGFR1 (human) (UniProt P11362)
FGR (human) = FGR (human) (UniProt P09769)
FLT3 (human) = FLT3 (human) (UniProt P36888)
[3] = test system: FLT3 (human), P36888 [D835H]
[4] = test system: FLT3 (human), P36888 [D835Y]
[5] = test system: FLT3 (human), P36888 [K663Q]
[6] = test system: FLT3 (human), P36888 [N841I]
[7] = test system: FLT3 (human), P36888 [R834Q]
HCK (human) = HCK (human) (UniProt P08631)
IKBKB (human) = IKBKB (human) (UniProt O14920)
[8] = molecular target: JAK3 JH1 catalytic (human) (UniProt P52333)
KIT (human) = KIT (human) (UniProt P10721)
[9] = test system: KIT (human), P10721 [L576P]
[10] = test system: KIT (human), P10721 [V559D/T670I]
[11] = test system: KIT (human), P10721 [V559D]
LCK (human) = LCK (human) (UniProt P06239)
LYN (human) = LYN (human) (UniProt P07948)
MAP2K5 (human) = MAP2K5 (human) (UniProt Q13163)
MAP3K2 (human) = MAP3K2 (human) (UniProt Q9Y2U5)
MAP3K3 (human) = MAP3K3 (human) (UniProt Q99759)
MAP3K7 (human) = MAP3K7 (human) (UniProt O43318)
MAP4K1 (human) = MAP4K1 (human) (UniProt Q92918)
MAP4K2 (human) = MAP4K2 (human) (UniProt Q12851)
MAPK14 (human) = MAPK14 (human) (UniProt Q16539)
MLTK (human) = MLTK (human) (UniProt Q9NYL2)
MUSK (human) = MUSK (human) (UniProt O15146)
NTRK1 (human) = NTRK1 (human) (UniProt P04629)
NTRK2 (human) = NTRK2 (human) (UniProt Q16620)
NTRK3 (human) = NTRK3 (human) (UniProt Q16288)
PDGFRA (human) = PDGFRA (human) (UniProt P16234)
PDGFRB (human) = PDGFRB (human) (UniProt P09619)
RET (human) = RET (human) (UniProt P07949)
[12] = test system: RET (human), P07949 [M918T]
[13] = test system: RET (human), P07949 [V804M]
SGK3 (human) = SGK3 (human) (UniProt Q96BR1)
SRC (human) = SRC (human) (UniProt P12931)
STK10 (human) = STK10 (human) (UniProt O94804)
TAOK3 (human) = TAOK3 (human) (UniProt Q9H2K8)
TEK (human) = TEK (human) (UniProt Q02763)
TIE1 (human) = TIE1 (human) (UniProt P35590)
TNIK (human) = TNIK (human) (UniProt Q9UKE5)
TNK1 (human) = TNK1 (human) (UniProt Q13470)
ULK1 (human) = ULK1 (human) (UniProt O75385)
YES1 (human) = YES1 (human) (UniProt P07947)
YES1 (human), sequence (P07947 whole entry, looked up): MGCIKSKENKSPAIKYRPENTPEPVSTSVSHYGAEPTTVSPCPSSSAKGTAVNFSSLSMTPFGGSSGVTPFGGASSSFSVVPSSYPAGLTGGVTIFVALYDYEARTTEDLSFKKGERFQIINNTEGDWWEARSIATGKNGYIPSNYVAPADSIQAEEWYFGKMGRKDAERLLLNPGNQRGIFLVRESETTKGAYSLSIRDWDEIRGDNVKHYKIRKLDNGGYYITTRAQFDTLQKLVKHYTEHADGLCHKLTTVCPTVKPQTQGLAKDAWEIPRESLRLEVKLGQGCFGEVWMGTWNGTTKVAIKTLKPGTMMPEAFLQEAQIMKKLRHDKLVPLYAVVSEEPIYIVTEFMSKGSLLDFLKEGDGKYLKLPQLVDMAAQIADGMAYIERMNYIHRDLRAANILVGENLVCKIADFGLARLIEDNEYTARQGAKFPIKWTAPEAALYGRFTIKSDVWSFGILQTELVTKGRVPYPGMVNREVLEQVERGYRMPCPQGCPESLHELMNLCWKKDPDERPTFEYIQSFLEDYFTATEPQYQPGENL

ULK1 (human), sequence (O75385 whole entry, looked up): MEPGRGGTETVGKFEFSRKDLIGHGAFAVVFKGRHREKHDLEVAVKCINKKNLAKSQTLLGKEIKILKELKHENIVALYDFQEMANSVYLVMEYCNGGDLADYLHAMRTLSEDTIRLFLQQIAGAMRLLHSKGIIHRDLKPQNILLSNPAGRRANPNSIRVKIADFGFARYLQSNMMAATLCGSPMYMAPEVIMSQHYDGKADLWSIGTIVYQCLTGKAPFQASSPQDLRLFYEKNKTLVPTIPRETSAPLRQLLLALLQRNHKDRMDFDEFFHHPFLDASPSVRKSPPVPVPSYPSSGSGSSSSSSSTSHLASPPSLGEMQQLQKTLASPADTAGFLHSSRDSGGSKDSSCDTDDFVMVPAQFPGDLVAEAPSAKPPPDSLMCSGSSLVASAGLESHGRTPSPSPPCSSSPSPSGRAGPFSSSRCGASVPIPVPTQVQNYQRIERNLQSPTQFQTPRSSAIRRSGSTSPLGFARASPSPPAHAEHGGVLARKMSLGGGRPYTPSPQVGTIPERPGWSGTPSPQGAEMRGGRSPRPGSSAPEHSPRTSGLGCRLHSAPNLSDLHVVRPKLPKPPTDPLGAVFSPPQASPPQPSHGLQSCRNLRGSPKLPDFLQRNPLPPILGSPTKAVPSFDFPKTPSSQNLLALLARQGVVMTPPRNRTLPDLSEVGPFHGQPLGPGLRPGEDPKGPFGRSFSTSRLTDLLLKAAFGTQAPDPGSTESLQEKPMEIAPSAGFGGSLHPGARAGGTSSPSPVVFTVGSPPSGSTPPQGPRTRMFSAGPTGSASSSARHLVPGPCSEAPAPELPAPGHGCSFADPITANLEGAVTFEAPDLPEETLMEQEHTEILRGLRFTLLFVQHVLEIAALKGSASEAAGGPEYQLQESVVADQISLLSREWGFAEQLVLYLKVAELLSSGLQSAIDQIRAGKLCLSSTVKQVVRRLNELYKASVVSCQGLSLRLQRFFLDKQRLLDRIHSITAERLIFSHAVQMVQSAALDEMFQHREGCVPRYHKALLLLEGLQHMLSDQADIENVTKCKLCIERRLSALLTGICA
KIT (human), P10721 [V559D/T670I], sequence (P10721 whole entry V559D/T670I, looked up): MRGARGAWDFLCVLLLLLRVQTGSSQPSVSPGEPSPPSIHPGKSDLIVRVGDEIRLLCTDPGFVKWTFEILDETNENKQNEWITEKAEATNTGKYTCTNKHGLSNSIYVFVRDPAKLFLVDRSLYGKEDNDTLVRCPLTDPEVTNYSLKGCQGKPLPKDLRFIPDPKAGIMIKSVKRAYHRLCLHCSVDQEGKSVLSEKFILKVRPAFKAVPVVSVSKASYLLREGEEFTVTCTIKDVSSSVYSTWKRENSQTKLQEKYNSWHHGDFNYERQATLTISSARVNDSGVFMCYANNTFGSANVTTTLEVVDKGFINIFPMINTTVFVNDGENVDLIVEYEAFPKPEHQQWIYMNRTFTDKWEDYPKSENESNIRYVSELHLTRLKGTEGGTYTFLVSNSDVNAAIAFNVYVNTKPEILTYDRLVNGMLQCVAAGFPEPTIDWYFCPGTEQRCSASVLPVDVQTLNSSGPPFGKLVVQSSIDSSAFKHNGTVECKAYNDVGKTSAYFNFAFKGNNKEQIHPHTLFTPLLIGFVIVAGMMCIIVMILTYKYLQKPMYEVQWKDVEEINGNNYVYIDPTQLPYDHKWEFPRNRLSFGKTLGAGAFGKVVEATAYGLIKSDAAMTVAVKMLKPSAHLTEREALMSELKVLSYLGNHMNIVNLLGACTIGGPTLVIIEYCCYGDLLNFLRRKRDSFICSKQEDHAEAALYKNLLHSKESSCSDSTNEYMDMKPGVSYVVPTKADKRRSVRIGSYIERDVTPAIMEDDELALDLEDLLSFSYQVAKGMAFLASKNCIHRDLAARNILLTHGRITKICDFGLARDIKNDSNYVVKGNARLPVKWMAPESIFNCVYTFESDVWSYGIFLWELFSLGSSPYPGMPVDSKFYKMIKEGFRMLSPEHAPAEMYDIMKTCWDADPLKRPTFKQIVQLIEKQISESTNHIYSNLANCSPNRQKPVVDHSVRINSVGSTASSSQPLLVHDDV
LCK (human), sequence (P06239 whole entry, looked up): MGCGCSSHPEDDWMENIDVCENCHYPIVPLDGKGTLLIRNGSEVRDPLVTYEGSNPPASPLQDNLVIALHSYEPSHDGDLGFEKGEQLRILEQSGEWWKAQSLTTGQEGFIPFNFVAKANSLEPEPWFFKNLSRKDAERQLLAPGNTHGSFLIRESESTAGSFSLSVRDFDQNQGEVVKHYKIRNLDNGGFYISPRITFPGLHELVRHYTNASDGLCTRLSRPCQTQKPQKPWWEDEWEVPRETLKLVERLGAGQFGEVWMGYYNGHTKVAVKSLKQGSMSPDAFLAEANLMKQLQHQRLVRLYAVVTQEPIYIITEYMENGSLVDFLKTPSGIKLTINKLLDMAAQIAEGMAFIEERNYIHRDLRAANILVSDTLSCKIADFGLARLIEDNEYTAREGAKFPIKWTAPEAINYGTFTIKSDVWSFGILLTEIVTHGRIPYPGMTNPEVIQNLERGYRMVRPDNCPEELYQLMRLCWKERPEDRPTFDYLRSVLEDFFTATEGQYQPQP
RET (human), sequence (P07949 whole entry, looked up): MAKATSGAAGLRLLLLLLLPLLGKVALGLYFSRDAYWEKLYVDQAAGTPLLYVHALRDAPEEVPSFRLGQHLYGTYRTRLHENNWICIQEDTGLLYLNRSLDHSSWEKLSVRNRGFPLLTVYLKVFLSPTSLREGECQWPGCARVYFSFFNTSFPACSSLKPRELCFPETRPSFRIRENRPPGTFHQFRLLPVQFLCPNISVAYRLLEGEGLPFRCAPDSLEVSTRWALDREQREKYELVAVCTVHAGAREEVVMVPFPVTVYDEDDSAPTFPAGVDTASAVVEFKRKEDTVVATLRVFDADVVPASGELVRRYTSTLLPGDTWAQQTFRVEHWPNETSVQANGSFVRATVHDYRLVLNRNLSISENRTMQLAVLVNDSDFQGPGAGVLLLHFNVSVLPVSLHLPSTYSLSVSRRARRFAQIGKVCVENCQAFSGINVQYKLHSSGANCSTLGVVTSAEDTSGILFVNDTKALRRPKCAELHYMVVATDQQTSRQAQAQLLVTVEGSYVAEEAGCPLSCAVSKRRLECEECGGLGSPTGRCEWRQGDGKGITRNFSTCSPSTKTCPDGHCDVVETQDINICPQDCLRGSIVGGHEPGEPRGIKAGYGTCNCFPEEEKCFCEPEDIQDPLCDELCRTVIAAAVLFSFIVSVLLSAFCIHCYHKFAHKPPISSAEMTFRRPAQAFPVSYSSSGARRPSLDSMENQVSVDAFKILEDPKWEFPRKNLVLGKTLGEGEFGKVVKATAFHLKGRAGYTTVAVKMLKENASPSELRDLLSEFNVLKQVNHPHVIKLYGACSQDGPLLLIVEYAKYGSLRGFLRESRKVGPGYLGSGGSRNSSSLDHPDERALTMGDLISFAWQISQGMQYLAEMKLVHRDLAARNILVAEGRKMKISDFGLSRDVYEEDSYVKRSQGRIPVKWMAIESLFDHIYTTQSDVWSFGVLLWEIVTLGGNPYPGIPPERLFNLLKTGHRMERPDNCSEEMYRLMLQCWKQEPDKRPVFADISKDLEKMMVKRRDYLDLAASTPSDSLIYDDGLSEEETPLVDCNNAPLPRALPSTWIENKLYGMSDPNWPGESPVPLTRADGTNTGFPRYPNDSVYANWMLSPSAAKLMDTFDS
LYN (human), sequence (P07948 whole entry, looked up): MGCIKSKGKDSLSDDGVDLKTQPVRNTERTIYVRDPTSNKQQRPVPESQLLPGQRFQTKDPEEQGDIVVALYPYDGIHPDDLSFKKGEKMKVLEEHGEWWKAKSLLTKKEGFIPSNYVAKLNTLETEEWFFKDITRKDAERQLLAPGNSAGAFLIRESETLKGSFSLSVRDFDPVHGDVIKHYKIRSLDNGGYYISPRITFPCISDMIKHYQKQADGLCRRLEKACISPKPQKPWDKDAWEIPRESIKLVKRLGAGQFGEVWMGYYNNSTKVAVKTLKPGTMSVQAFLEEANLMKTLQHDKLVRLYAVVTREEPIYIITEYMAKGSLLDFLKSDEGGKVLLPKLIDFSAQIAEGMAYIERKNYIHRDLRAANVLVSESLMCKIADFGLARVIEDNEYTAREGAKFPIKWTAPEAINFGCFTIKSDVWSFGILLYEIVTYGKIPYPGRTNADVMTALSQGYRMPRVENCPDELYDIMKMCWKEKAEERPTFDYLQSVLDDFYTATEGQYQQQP
MAPK14 (human), sequence (Q16539 whole entry, looked up): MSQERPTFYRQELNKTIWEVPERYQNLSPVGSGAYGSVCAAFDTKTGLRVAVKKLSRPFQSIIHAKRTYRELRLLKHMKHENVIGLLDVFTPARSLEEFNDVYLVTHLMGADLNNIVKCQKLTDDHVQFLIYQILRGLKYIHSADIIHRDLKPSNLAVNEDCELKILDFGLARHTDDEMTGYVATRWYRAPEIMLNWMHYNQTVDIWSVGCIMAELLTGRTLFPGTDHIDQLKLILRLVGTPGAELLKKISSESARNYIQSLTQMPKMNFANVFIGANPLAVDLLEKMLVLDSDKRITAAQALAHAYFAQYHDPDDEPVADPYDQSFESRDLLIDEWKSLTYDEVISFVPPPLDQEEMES

- inhibition (ANKK1 (human)): 55%
- inhibition (BLK (human)): 97.6%
- inhibition (BMX (human)): 51%
- inhibition (BRAF (human)): 78%
- inhibition [1]: 93.6%
- inhibition (CHUK (human)): 86%
- inhibition (CPK1 (P.falciparum)): 79%
- inhibition (CSF1R (human)): 97.8%
- inhibition (CSK (human)): 97.8%
- inhibition (DDR1 (human)): 99.8%
- inhibition (DDR2 (human)): 64%
- inhibition [2]: 54%
- inhibition (EPHA3 (human)): 89%
- inhibition (EPHA4 (human)): 52%
- inhibition (EPHA8 (human)): 89%
- inhibition (FGFR1 (human)): 84%
- inhibition (FGR (human)): 81%
- inhibition (FLT3 (human)): 97.6%
- inhibition [3]: 82%
- inhibition [4]: 58%
- inhibition [5]: 95%
- inhibition [6]: 97.1%
- inhibition [7]: 77%
- inhibition (HCK (human)): 95.8%
- inhibition (IKBKB (human)): 90%
- inhibition [8]: 67%
- inhibition (KIT (human)): 97.2%
- inhibition [9]: 97.8%
- inhibition [10]: 91.9%
- inhibition [11]: 98.6%
- inhibition (LCK (human)): 96.8%
- inhibition (LYN (human)): 83%
- inhibition (MAP2K5 (human)): 94.8%
- inhibition (MAP3K2 (human)): 63%
- inhibition (MAP3K3 (human)): 90%
- inhibition (MAP3K7 (human)): 96.2%
- inhibition (MAP4K1 (human)): 59%
- inhibition (MAP4K2 (human)): 86%
- inhibition (MAPK14 (human)): 59%
- inhibition (MLTK (human)): 96.2%
- inhibition (MUSK (human)): 78%
- inhibition (NTRK1 (human)): 100%
- inhibition (NTRK2 (human)): 86%
- inhibition (NTRK3 (human)): 82%
- inhibition (PDGFRA (human)): 76%
- inhibition (PDGFRB (human)): 90.5%
- inhibition (RET (human)): 85%
- inhibition [12]: 90.6%
- inhibition [13]: 65%
- inhibition (SGK3 (human)): 52%
- inhibition (SRC (human)): 76%
- inhibition (STK10 (human)): 99.8%
- inhibition (TAOK3 (human)): 92.1%
- inhibition (TEK (human)): 97.2%
- inhibition (TIE1 (human)): 82%
- inhibition (TNIK (human)): 81%
- inhibition (TNK1 (human)): 83%
- inhibition (ULK1 (human)): 51%
- inhibition (YES1 (human)): 70%
SMILES: Cc1ccc(C(=O)Nc2ccc(CN3CCN(C)CC3)c(C(F)(F)F)c2)cc1C#Cc1cnc2[nH]ncc2c1
